Reference: patent US20230365592A1 (Agios Pharmaceuticals, Inc., priority 2022, published 2023)

Molecular target: T1, human PAH with the R408W mutation (Homo sapiens, UniProt P00439, R408W)
T1 construct: expressed in transfected cells
T1 sequence (P00439 1-452 R408W): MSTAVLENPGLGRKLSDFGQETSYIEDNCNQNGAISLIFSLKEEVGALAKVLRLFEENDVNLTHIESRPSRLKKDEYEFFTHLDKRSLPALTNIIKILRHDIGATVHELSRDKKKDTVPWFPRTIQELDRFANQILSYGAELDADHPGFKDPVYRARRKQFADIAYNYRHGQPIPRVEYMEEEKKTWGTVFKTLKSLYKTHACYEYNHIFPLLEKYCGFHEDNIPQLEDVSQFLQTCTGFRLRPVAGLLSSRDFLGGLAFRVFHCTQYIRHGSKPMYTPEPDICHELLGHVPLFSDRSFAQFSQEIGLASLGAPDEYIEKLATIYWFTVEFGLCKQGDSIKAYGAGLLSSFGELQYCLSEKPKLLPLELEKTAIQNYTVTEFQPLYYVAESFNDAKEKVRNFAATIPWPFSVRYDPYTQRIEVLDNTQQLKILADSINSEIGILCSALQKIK
Experiment: Cell Based Phenylalanine Flux Assay;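 further: after compound treatment, cells received sepiapterin plus isotope-labelled Phenylalanine for 4 hours, then labelled Tyrosine in the medium was quantified, 10-point 2-fold dilution series run in duplicate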
Conditions: A375 cells expressing R408W PAH; 24 hrs with compound, then 20 µM sepiapterin and 800 µM 13C9,15N-Phenylalanine for 4 hours; 13C-Tyrosine by LC-MS; average where tested multiple times; read-out: AC50

SMILES	AC50
Cc1cccn2nc(C3c4nc[nH]c4CCN3C(=O)c3ccn(-c4ccccn4)n3)cc12 (stereo not drawn)	1000 to 5000 nM
Fc1cccn2nc(C3c4nc[nH]c4CCN3c3nc4ccccc4o3)cc12 (stereo not drawn)	1000 to 5000 nM
FC(F)c1cccn2nc(C3c4nc[nH]c4CCN3c3nnc(-c4ncccn4)o3)cc12 (stereo not drawn)	1000 to 5000 nM
Clc1cccc2cc(C3c4nc[nH]c4CCN3c3nnc(C4CCC4)o3)nn12 (stereo not drawn)	1000 to 5000 nM
CC(C)(O)c1nnc(C(=O)N2CCc3[nH]cnc3C2c2cc3c(C(F)(F)F)cccn3n2)o1 (stereo not drawn)	1000 to 5000 nM
Cn1ccc(-c2nnc(C(=O)N3CCc4[nH]cnc4C3c3cc4c(OC(F)F)cccn4n3)o2)n1 (stereo not drawn)	> 5000 nM
Cc1c(-c2ncc(C(=O)N3CCc4[nH]cnc4C3c3cc4ccccn4n3)o2)cnn1C (stereo not drawn)	> 5000 nM
Nc1ccc(N2CCc3[nH]cnc3C2c2cc3c(C(F)F)cccn3n2)nc1 (stereo not drawn)	1000 to 5000 nM
CC1(c2nnc(N3CCc4[nH]cnc4C3c3cc4c(C(F)(F)F)cccn4n3)o2)CC1 (stereo not drawn)	1000 to 5000 nM
Cc1c(C2c3nc[nH]c3CCN2C(=O)c2nnc(-c3cnn(C)c3C)o2)nn2ccccc12 (stereo not drawn)	1000 to 5000 nM
Cc1nnc(C(=O)N2CCc3[nH]cnc3C2c2cc3ccccn3n2)o1 (stereo not drawn)	1000 to 5000 nM
COC(=O)N1CC(C(=O)N2CCc3[nH]cnc3[C@H]2c2cc3ccccn3n2)C1 (single isomer, unassigned)	> 5000 nM
Cn1nc(C(C)(C)C)cc1C(=O)N1CCc2[nH]cnc2C1c1cc2c(F)cccn2n1 (stereo not drawn)	1000 to 5000 nM
O=C(c1nnc(-c2ncccn2)o1)N1CCc2[nH]cnc2[C@H]1c1cc2c(C3CC3)cccn2n1 (single isomer, unassigned)	> 5000 nM
O=C(c1cnn2ccccc12)N1CCc2[nH]cnc2C1c1cc2cccc(C(F)F)n2n1 (stereo not drawn)	1000 to 5000 nM

Same assay, conditions: A375 cells expressing human PAH R408W; 24 hrs compound incubation; 13C-Tyrosine by LC-MS; average where tested multiple times; read-out: AC50

SMILES	AC50
CC(C)c1cccn2nc([C@H]3c4nc[nH]c4CCN3c3nnc(C4CC4)o3)cc12 [Example 2168, (R)-2-cyclopropyl-5-(4-(4-isopropylpyrazolo[1,5-a]pyridin-2-yl)-1,4,6,7-tetrahydro-5H-imidazo[4,5-c]pyridin-5-yl)-1,3,4-oxadiazole]	1000 to 5000 nM
CC(C)c1cccn2nc([C@@H]3c4nc[nH]c4CCN3c3nnc(C4CC4)o3)cc12 [Example 2169, (S)-2-cyclopropyl-5-(4-(4-isopropylpyrazolo[1,5-a]pyridin-2-yl)-1,4,6,7-tetrahydro-5H-imidazo[4,5-c]pyridin-5-yl)-1,3,4-oxadiazole]	< 500 nM
O=C(c1cnc(-c2cnccn2)o1)N1CCc2[nH]cnc2[C@@H]1c1cc2c(F)cccn2n1 [Example 2517, (R)-(4-(4-fluoropyrazolo[1,5-a]pyridin-2-yl)-1,4,6,7-tetrahydro-5H-imidazo[4,5-c]pyridin-5-yl)(2-(pyrazin-2-yl)oxazol-5-yl)methanone]	> 5000 nM
O=C(c1oc(-c2ccccn2)nc1C1CC1)N1CCc2[nH]cnc2[C@H]1c1cc2c(C(F)F)cccn2n1 [Example 2122, (S)-(4-cyclopropyl-2-(pyridin-2-yl)oxazol-5-yl)(4-(4-(difluoromethyl)pyrazolo[1,5-a]pyridin-2-yl)-1,4,6,7-tetrahydro-5H-imidazo[4,5-c]pyridin-5-yl)methanone]	< 500 nM
Cc1cccn2nc([C@@H]3c4nc[nH]c4CCN3C(=O)[C@H]3CC3(F)F)cc12 [Example 2027, ((R)-2,2-difluorocyclopropyl)((S)-4-(4-methylpyrazolo[1,5-a]pyridin-2-yl)-1,4,6,7-tetrahydro-5H-imidazo[4,5-c]pyridin-5-yl)methanone]	500 to 1000 nM
CC(F)(F)c1nnc(N2CCc3[nH]cnc3[C@H]2c2cc3c(C4CC4)cccn3n2)o1 [Example 2205, (S)-2-(4-(4-cyclopropylpyrazolo[1,5-a]pyridin-2-yl)-1,4,6,7-tetrahydro-5H-imidazo[4,5-c]pyridin-5-yl)-5-(1,1-difluoroethyl)-1,3,4-oxadiazole]	< 500 nM
Cn1nccc1-c1nnc(C(=O)N2CCc3[nH]cnc3[C@@H]2c2cc3ccccn3n2)o1 [Example 2005, (R)-(5-(1-methyl-1H-pyrazol-5-yl)-1,3,4-oxadiazol-2-yl)(4-(pyrazolo[1,5-a]pyridin-2-yl)-1,4,6,7-tetrahydro-5H-imidazo[4,5-c]pyridin-5-yl)methanone]	> 5000 nM

Same assay, conditions: A375 cells expressing human R408W PAH; 24 hrs compound incubation; 13C-Tyrosine by LC-MS; average where tested multiple times; read-out: AC50

SMILES	AC50
Cn1cc(-c2nnc(C(=O)N3CCc4[nH]cnc4[C@H]3c3cc4cccc(Cl)n4n3)o2)cn1 [Example 1066, (S)-(4-(7-chloropyrazolo[1,5-a]pyridin-2-yl)-6,7-dihydro-1H-imidazo[4,5-c]pyridin-5(4H)-yl)(5-(1-methyl-1H-pyrazol-4-yl)-1,3,4-oxadiazol-2-yl)methanone]	< 500 nM
Cc1nn(C)cc1-c1nnc(C(=O)N2CCc3[nH]cnc3[C@H]2c2cc3cccc(F)n3n2)o1 [Example 1566, (S)-(5-(1,3-dimethyl-1H-pyrazol-4-yl)-1,3,4-oxadiazol-2-yl)(4-(7-fluoropyrazolo[1,5-a]pyridin-2-yl)-6,7-dihydro-1H-imidazo[4,5-c]pyridin-5(4H)-yl)methanone]	500 to 1000 nM
Cc1cccn2nc([C@H]3c4nc[nH]c4CCN3C(=O)c3nnc(-c4ncccc4F)o3)cc12 [Example 818, (R)-(5-(3-fluoropyridin-2-yl)-1,3,4-oxadiazol-2-yl)(4-(4-methylpyrazolo[1,5-a]pyridin-2-yl)-6,7-dihydro-1H-imidazo[4,5-c]pyridin-5(4H)-yl)methanone]	> 5000 nM
Cc1cccn2nc([C@@H]3c4nc[nH]c4CCN3C(=O)c3nnc(-c4ccc(F)cn4)o3)cc12 [Example 875, (S)-(5-(5-fluoropyridin-2-yl)-1,3,4-oxadiazol-2-yl)(4-(4-methylpyrazolo[1,5-a]pyridin-2-yl)-6,7-dihydro-1H-imidazo[4,5-c]pyridin-5(4H)-yl)methanone]	< 500 nM
CC(C)c1nnc(C(=O)N2CCc3[nH]cnc3[C@H]2c2cc3cccc(F)n3n2)o1 [Example 1555, (S)-(4-(7-fluoropyrazolo[1,5-a]pyridin-2-yl)-6,7-dihydro-1H-imidazo[4,5-c]pyridin-5(4H)-yl)(5-isopropyl-1,3,4-oxadiazol-2-yl)methanone]	1000 to 5000 nM
Cc1ccc(-c2nnc(C(=O)N3CCc4[nH]cnc4[C@@H]3c3cc4c(C)cccn4n3)o2)nc1 [Example 870, (R)-(4-(4-methylpyrazolo[1,5-a]pyridin-2-yl)-6,7-dihydro-1H-imidazo[4,5-c]pyridin-5(4H)-yl)(5-(5-methylpyridin-2-yl)-1,3,4-oxadiazol-2-yl)methanone]	> 5000 nM
Cc1cccc2cc([C@H]3c4nc[nH]c4CCN3C(=O)c3nnc(C4CC4)o3)nn12 [Example 941, (R)-(5-cyclopropyl-1,3,4-oxadiazol-2-yl)(4-(7-methylpyrazolo[1,5-a]pyridin-2-yl)-6,7-dihydro-1H-imidazo[4,5-c]pyridin-5(4H)-yl)methanone]	> 5000 nM
Cn1cncc1-c1nc(C(F)F)c(C(=O)N2CCc3[nH]cnc3[C@@H]2c2cc3c(F)cccn3n2)o1 [Example 888, (R)-(4-(difluoromethyl)-2-(1-methyl-1H-imidazol-5-yl)oxazol-5-yl)(4-(4-fluoropyrazolo[1,5-a]pyridin-2-yl)-6,7-dihydro-1H-imidazo[4,5-c]pyridin-5(4H)-yl)methanone]	> 5000 nM
Cc1nc([C@H](C)O)oc1C(=O)N1CCc2[nH]cnc2[C@H]1c1cc2cccc(Cl)n2n1 [Example 1212, ((S)-4-(7-chloropyrazolo[1,5-a]pyridin-2-yl)-6,7-dihydro-1H-imidazo[4,5-c]pyridin-5(4H)-yl)(2-((S)-1-hydroxyethyl)-4-methyloxazol-5-yl)methanone]	500 to 1000 nM
O=C(c1nnc(-c2ncccn2)o1)N1CCc2[nH]cnc2[C@H]1c1cc2cccc(C(F)F)n2n1 [Example 1499, (S)-(4-(7-(difluoromethyl)pyrazolo[1,5-a]pyridin-2-yl)-6,7-dihydro-1H-imidazo[4,5-c]pyridin-5(4H)-yl)(5-(pyrimidin-2-yl)-1,3,4-oxadiazol-2-yl)methanone]	500 to 1000 nM
O=C(c1oc(-c2ccccn2)nc1C(F)F)N1CCc2[nH]cnc2[C@@H]1c1cc2c(F)cccn2n1 [Example 1007, (R)-(4-(difluoromethyl)-2-(pyridin-2-yl)oxazol-5-yl)(4-(4-fluoropyrazolo[1,5-a]pyridin-2-yl)-6,7-dihydro-1H-imidazo[4,5-c]pyridin-5(4H)-yl)methanone]	500 to 1000 nM
O=C(c1cnn2cc(-c3ccccn3)ccc12)N1CCc2[nH]cnc2[C@@H]1c1cc2c(C(F)(F)F)cccn2n1 [Example 1551, (R)-(6-(pyridin-2-yl)pyrazolo[1,5-a]pyridin-3-yl)(4-(4-(trifluoromethyl)pyrazolo[1,5-a]pyridin-2-yl)-6,7-dihydro-1H-imidazo[4,5-c]pyridin-5(4H)-yl)methanone]	1000 to 5000 nM
Cc1nc(C(=O)N2CCc3[nH]cnc3[C@H]2c2cc3c(C)cccn3n2)n(C)n1 [Example 916, (S)-(1,3-dimethyl-1H-1,2,4-triazol-5-yl)(4-(4-methylpyrazolo[1,5-a]pyridin-2-yl)-6,7-dihydro-1H-imidazo[4,5-c]pyridin-5(4H)-yl)methanone]	< 500 nM
Cc1ccc(-c2nnc(C(=O)N3CCc4[nH]cnc4[C@@H]3c3cc4c(F)cccn4n3)o2)nc1 [Example 876, (R)-(4-(4-fluoropyrazolo[1,5-a]pyridin-2-yl)-6,7-dihydro-1H-imidazo[4,5-c]pyridin-5(4H)-yl)(5-(5-methylpyridin-2-yl)-1,3,4-oxadiazol-2-yl)methanone]	> 5000 nM
